IC50 data for twelve compounds are collected here from US10821115B2, “Compounds that inhibit Mcl-1 protein” (priority 2017, dated 2020).

For assay [1], the system named is human multiple myeloma cell line, OPM-2. As to the kind of experiment: Cell viability assay (OPM-2 10 FBS), CellTiter-Glo. Type of assay: cell-based. Put shortly:
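Steps: plate cells at 3000/well in 10% FBS growth medium, add serially diluted compound, incubate 16 h at 37 °C with 5% CO2, add detection reagent and read luminescence after 25 min. A 4-parameter logistic model gives IC50.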

Assay [2] has as its target recombinant human Mcl-1 (residues 171-327) / Bim interaction (Homo sapiens (Human), UniProt Q07820). As to the kind of experiment: biochemical. As to conditions: read-out: Mcl-1 HTRF IC50. It is filed as binding.
Protocol: The inhibition of the Mcl-1/Bim interaction was measured using a time-resolved fluorescence resonance energy transfer (TR-FRET) assay. […] The TR-FRET assay was conducted in a 384-well white OptiPlate™ (PerkinElmer, Waltham, Mass.) in a total volume of 40 μL. The reaction mixture contained 0.1 nM Mcl-1(171-327), 0.05 nM biotin-Bim (51-76), 0.05 nM LANCE® Eu-W1024 Anti-6×His (PerkinElmer), 0.072 nM Streptavidin-Xlent (Cisbio, Bedford, Mass.), and serially diluted test compounds in the binding buffer of 20 mM Hepes, pH 7.5, 150 mM NaCl, 0.016 mM Brij®35, and 1 mM dithiothreitol. Test compounds were pre-incubated with Mcl-1(171-327) and biotin-Bim (51-76) for 60 min before addition of the detection mixture (LANCE® Eu-W1024 Anti-6×His and Streptavidin-Xlent). The reaction plates were further incubated overnight and then were read on an Envision® multimode reader (PerkinElmer). Fluorescence signals were measured at 620 nm (40-nm bandwidth) and 665 nm (7.5-nm bandwidth) with a 60 is delay after excitation at 320 nm (75-nm bandwidth). The signal ratio at 665/620 nm corresponded to the Mcl-1/Bim interaction and was used in all data analyses. The IC50 values of test compounds were determined from duplicate data by analyzing competition curves using a four-parameter sigmoidal model in GraphPad Prism (GraphPad Software, San Diego, Calif.) or in Genedata Screener® (Genedata, Basel, Switzerland).
[3] abbreviates: Homo sapiens, OPM-2, 16 h, read-out: OPM-2 10% FBS IC50 IP, OPM-2 cells, 10% FBS, 16 h, CellTiter-Glo.
The mark [4] stands for this setting: TR-FRET, Mcl-1(171-327) / biotin-Bim (51-76).
[5] abbreviates: read-out: OPM-2 10% FBS IC50 IP, OPM-2 cells, 10% FBS, 16 h, CellTiter-Glo.

Where two headings read alike, the source gives them in different places.

Chain of recombinant human Mcl-1 (residues 171-327) / Bim interaction (Q07820 171-327): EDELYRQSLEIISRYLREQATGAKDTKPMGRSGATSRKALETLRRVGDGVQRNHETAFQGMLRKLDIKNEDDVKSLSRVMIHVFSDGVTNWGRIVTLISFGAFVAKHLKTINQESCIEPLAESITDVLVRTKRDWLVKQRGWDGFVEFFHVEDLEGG

On to `C=C(F)C[C@@]1(OC)/C=C/C[C@H](C)[C@@H](C)S(=O)(=O)NC(=O)c2ccc3c(c2)N(C[C@@H]2CC[C@H]21)C[C@@]1(CCCc2cc(Cl)ccc21)CO3` [Example 100568, (1S,3′R,6′R,7′R,8′E,11′S,12′R)-6-chloro-7′-(2-fluoro-2-propen-1-yl)-7′-methoxy-11′,12′-dimethyl-3,4-dihydro-2H,15′H-spiro[naphthalene-1,22′-[20]oxa[13]thia[1,14]diazatetracyclo [14.7.2.0~3,6~.0~19,24~]pentacosa[8,16,18,24]tetraen]-15′-one 13′,13′-dioxide], for which the half-maximal inhibitory concentration (IC50) in assay [1] (setting [3]) stood at 1540 nM; in assay [2] (setting [4]) it was 0.431 nM.
For the compound `CC(C)C[C@@]1(O)/C=C/C[C@H](C)[C@@H](C)S(=O)(=O)NC(=O)c2ccc3c(c2)N(C[C@@H]2CC[C@H]21)C[C@@]1(CCCc2cc(Cl)ccc21)CO3` [Example 100220, (1S,3′R,6′R,7′R,8′E,11′S,12′R)-6-chloro-7′-hydroxy-11′,12′-dimethyl-7′-(2-methylpropyl)-3,4-dihydro-2H,15′H-spiro[naphthalene-1,22′-[20]oxa[13]thia[1,14]diazatetracyclo [14.7.2.0~3,6~.0~19,24~]pentacosa[8,16,18,24]tetraen]-15′-one 13′,13′-dioxide], the results for the IC50 in assay [1] (setting [3]) and in assay [2] (setting [4]) were 6840 nM and 7.42 nM, respectively.
In the case of `C[C@@H]1[C@@H](C)C/C=C/[C@@](O)(c2ccc(F)nc2)[C@@H]2CC[C@H]2CN2C[C@@]3(CCCc4cc(Cl)ccc43)COc3ccc(cc32)C(=O)NS1(=O)=O` (single isomer, unassigned) [Example 100530], the half-inhibitory concentration (IC50) is 448 nM in assay [1] (setting [5]) and 0.171 nM in assay [2] (setting [4]).
With `C[C@@H]1[C@@H](C)CCC[C@](O)(CC[S@@+](C)[O-])[C@@H]2CC[C@H]2CN2C[C@@]3(CCCc4cc(Cl)ccc43)COc3ccc(cc32)C(=O)NS1(=O)=O` [Example 100330, (1S,3′R,6′R,7′S,11′S,12′R)-6-chloro-7′-hydroxy-11′,12′-dimethyl-7′-(2-((R)-methylsulfinyl)ethyl)-3,4-dihydro-2H,15′H-spiro[naphthalene-1,22′-[20]oxa[13]thia[1,14]diazatetracyclo [14.7.2.0~3,6~.0~19,24~]pentacosa[16,18,24]trien]-15′-one 13′,13′-dioxide], the values for the IC50 in assay [1] (setting [3]) and in assay [2] (setting [4]) were 8260 nM and 0.083 nM, respectively.
Take `C[C@@H]1[C@@H](C)C/C=C/[C@@](O)(C#CCCc2ccccn2)[C@@H]2CC[C@H]2CN2C[C@@]3(CCCc4cc(Cl)ccc43)COc3ccc(cc32)C(=O)NS1(=O)=O` [Example 100440, (1S,3′R,6′R,7′S,8′E,11′S,12′R)-6-chloro-7′-hydroxy-11′,12′-dimethyl-7′-(4-(2-pyridinyl)-1-butyn-1-yl)-3,4-dihydro-2H,15′H-spiro[naphthalene-1,22′-[20]oxa[13]thia[1,14]diazatetracyclo [14.7.2.0~3,6~.0~19,24~]pentacosa[8,16,18,24]tetraen]-15′-one 13′,13′-dioxide]: the concentration for half-maximal inhibition (IC50) in assay [1] (setting [5]) is 354 nM; in assay [2] (setting [4]), 0.398 nM.
Consider `COC[C@@H]1[C@@H](C)C/C=C/[C@@](CN2CCN(C3COC3)CC2)(OC)[C@@H]2CC[C@H]2CN2C[C@@]3(CCCc4cc(Cl)ccc43)COc3ccc(cc32)C(=O)NS1(=O)=O` [Example 167, (1S,3′R,6′R,7′R,8′E,11′S,12′S)-6-chloro-7′-methoxy-12′-(methoxymethyl)-11′-methyl-7′-((4-(3-oxetanyl)-1-piperazinyl)methyl)-3,4-dihydro-2H,15′H-spiro[naphthalene-1,22′-[20]oxa[13]thia[1,14]diazatetracyclo [14.7.2.0~3,6~.0~19,24~]pentacosa[8,16,18,24]tetraen]-15′-one 13′,13′-dioxide], for which the IC50 in assay [1] (Homo sapiens, OPM-2, 16 h, read-out: OPM-2 10% FBS IC50 IP, OPM-2 cells, 10% FBS, 16 h incubation) worked out at 52 nM; in assay [2] (0.1 nM Mcl-1(171-327), 0.05 nM biotin-Bim (51-76)), 0.086 nM.
`COc1ccncc1[C@]1(O)/C=C/C[C@H](C)[C@@H](C)S(=O)(=O)NC(=O)c2ccc3c(c2)N(C[C@@H]2CC[C@H]21)C[C@@]1(CCCc2cc(Cl)ccc21)CO3` (single isomer, unassigned) [Example 100557]: the IC50 in assay [1] (setting [3]) was found to be 299 nM; in assay [2] (setting [4]), 0.093 nM.
In the same order, the values of `CC(C)[C@@]1(O)/C=C/C[C@H](C)[C@@H](C)S(=O)(=O)NC(=O)c2ccc3c(c2)N(C[C@@H]2CC[C@H]21)C[C@@]1(CCCc2cc(Cl)ccc21)CO3` [Example 100210, (1S,3′R,6′R,7′R,8′E,11′S,12′R)-6-chloro-7′-hydroxy-11′,12′-dimethyl-7′-(2-propanyl)-3,4-dihydro-2H,15′H-spiro[naphthalene-1,22′-[20]oxa[13]thia[1,14]diazatetracyclo [14.7.2.0~3,6~.0~19,24~]pentacosa[8,16,18,24]tetraen]-15′-one 13′,13′-dioxide] are 3360 nM and 3.47 nM.
For `C[C@@H]1[C@@H](C)C/C=C/[C@@](O)(C#CCN2CCOCC2)[C@@H]2CC[C@H]2CN2C[C@@]3(CCCc4cc(Cl)ccc43)COc3ccc(cc32)C(=O)NS1(=O)=O` [Example 100320, (1S,3′R,6′R,7′S,8′E,11′S,12′R)-6-chloro-7′-hydroxy-11′,12′-dimethyl-7′-(3-(4-morpholinyl)-1-propyn-1-yl)-3,4-dihydro-2H,15′H-spiro[naphthalene-1,22′-[20]oxa[13]thia[1,14]diazatetracyclo [14.7.2.0~3,6~.0~19,24~]pentacosa[8,16,18,24]tetraen]-15′-one 13′,13′-dioxide], the concentration for half-maximal inhibition (IC50) in assay [1] (setting [5]) was 2140 nM; in assay [2] (setting [4]) it was 1.2 nM.
Turning to `C[C@@H]1[C@@H](C)C/C=C/[C@@](O)(c2ncnn2C)C2CC[C@H]2CN2C[C@@]3(CCCc4cc(Cl)ccc43)COc3ccc(cc32)C(=O)NS1(=O)=O` (stereo in doubt) [Example 100222, (1S,3′R,6′S,7′S,8′E,11′S,12′R)-6-chloro-7′-hydroxy-11′,12′-dimethyl-7′-(1-methyl-1H-1,2,4-triazol-5-yl)-3,4-dihydro-2H,15′H-spiro[naphthalene-1,22′-[20]oxa[13]thia[1,14]diazatetracyclo [14.7.2.0~3,6~.0~19,24~]pentacosa[8,16,18,24]tetraen]-15′-one 13′,13′-dioxide], the half-inhibitory concentration (IC50) in assay [1] (setting [3]) turned out to be 222 nM; in assay [2] (setting [4]), 0.182 nM.
On to `CCOP(=O)(OCC)C(F)(F)[C@]1(O)/C=C/C[C@H](C)[C@@H](C)S(=O)(=O)NC(=O)c2ccc3c(c2)N(C[C@@H]2CC[C@H]21)C[C@@]1(CCCc2cc(Cl)ccc21)CO3` [Example 100068, diethyl (((1S,3′R,6′R,7′S,8′E,11′S,12′R)-6-chloro-7′-hydroxy-11′,12′-dimethyl-13′,13′-dioxido-15′-oxo-3,4-dihydro-2H-spiro[naphthalene-1,22′-[20]oxa[13]thia[1,14]diazatetracyclo [14.7.2.0~3,6~.0~19,24~]pentacosa[8,16,18,24]tetraen]-7′-yl)(difluoro)methyl)phosphonate], for which the results for the concentration for half-maximal inhibition (IC50) in assay [1] (setting [5]) and in assay [2] (setting [4]) were 765 nM and 4.41 nM, respectively.
In the case of `C[C@@H]1[C@@H](C)CCCC(CN2CCOCC2)(CN2CCOCC2)[C@@H]2CC[C@H]2CN2C[C@@]3(CCCc4cc(Cl)ccc43)COc3ccc(cc32)C(=O)NS1(=O)=O` [Example 100452, (1S,3′R,6′R,11′S,12′R)-6-chloro-11′,12′-dimethyl-7′,7′-bis(4-morpholinylmethyl)-3,4-dihydro-2H,15′H-spiro[naphthalene-1,22′-[20]oxa[13]thia[1,14]diazatetracyclo [14.7.2.0~3,6~.0~19,24~]pentacosa[16,18,24]trien]-15′-one 13′,13′-dioxide], the concentration for half-maximal inhibition (IC50) in assay [1] (setting [3]) worked out at 157 nM; in assay [2] (setting [4]), 0.077 nM.
